{
  "source": "patent US20120121705A1",
  "about": "“Pharmaceutical Or Cosmetic Or Dietetic Composition Suitable For Promoting A Hair Pigmentation Effect” (priority 2009, published 2012)",
  "test_system": "hair follicle pigmentation unit",
  "assay": "Hair pigmentation: quantitative Masson-Fontana melanin staining in organ-cultured human scalp skin / hair follicles",
  "type": "cell-based",
  "conditions": "spermidine 3HCl 0.1 μM, given at each medium change (every 48 hours), 6 days organ culture; compared with vehicle; FIG. 1 and FIG. 2",
  "method": "The skin of normal human scalp was taken from a person who had undergone a routine face lifting surgery after receiving the informed consent. All the experiments were carried out according to the Helsinki principles, with the ethical committee's approval.\nThe tissues subject to biopsy with 3-4 mm cylindrical scalpel were cultured at 37° C. for 6 days in Williams E medium (Biochrom, Cambridge, U.K.), integrated with 100 IU ml^−1 penicillin, 10 μg ml^−1 streptomycin (Gibco, Karlsruhe, Germany), 10 μg ml^−1 insulin (Sigma, Taukfirchen, Germany), 10 ng ml^−1 hydrocortisone (Sigma) and 2 mmol L^−1 (L-glutamine (Invitrogen, Paisley, U.K.). […]\nThe Masson-Fontana staining was carried out for the histochemical display of melanin on frozen sections. Melanin was stained in the form of brown granules and the pigmentation level was determined through the quantitative Masson-Fontana technique (Ito N., Ito T., Kromminga A., Bettermann A., Takigawa M., Kees F., Straub R. H., and Paus R. (2005): Human hair follicles display a functional equivalent of the hypothalamic-pituitary-adrenal axis and synthesize cortisol. FASEB J 19, 1332-4). […]\nThe staining intensity was analyzed in a defined reference region of the hair follicle pigmentation unit using the ImageJ software (National Institute of Health). […]",
  "data": [
    {"smiles": "NCCCCNCCCN", "note": "[spermidine, N-(3-aminopropyl)butan-1,4-diamine]", "values": [
      {"measurement": "pigmentation intensity in hair follicles (melanin, Masson-Fontana staining)", "value": "increase of melanin"}
    ]}
  ]
}
